Measured values from patent US20130158024A1, “TRICYCLIC NECROSTATIN COMPOUNDS” (priority 2005, published 2013).
“Also recorded” adds a separate entry of the source. Read-outs that look alike come from different tables or passages of the source.

What was measured:
U937 cells = assay: Oxidative stress (menadione) induced death of U937 cells, ATP assay; assay type: cell-based, human; conditions: 250 μM menadione, 24 hours
Procedure: Viability of TNFα/zVAD/DMSO or manadione/DMSO blank treated cells is also shown (- - -). Viability was determined using ATP-Lite-M assay (Packard). Numbers represent percentages of live cells. The values were normalized relative to the zVAD or DMSO treated controls, which were set as 100% viability.
In this and subsequent panels, cell viability was determined via ATP assay. Numbers represent viability normalized to that of the DMSO-treated cells in the absence of TNFα and menadione. Throughout, error bars represent standard deviations. […] Representative images are shown. […] Protein lysates were subjected to western blotting with antibodies to LC3 and to tubulin. The ratio of LC3-II to tubulin signals was calculated (“Ratio”) and normalized to the value in the control sample. […] Alternatively, cells were treated with 2 μM rapamycin. […] Numbers represent viability normalized to that of the compound-treated cells in the absence of TNFα. In FIG. 28H, expression of beclin-1 (“Bec”) and tubulin (“Tub”) in the stable populations of cells in FIG. 28G was analyzed by western blotting.

primary cortical neurons = assay: Oxygen-glucose deprivation (OGD) induced death of primary cortical neurons, MAP2 cytoblot; assay type: cell-based; conditions: OGD 90 minutes, 24 hours recovery; 30 μM
Procedure: Cells were allowed to recover in the presence of the compounds (except for the CNQX/MK801) for 24 hours, and specific neuronal viability was determined using MAP2 cytoblot. Values represent the percentages of live cells normalized to the compound treated cells, which were maintained in glucose-containing, non-deoxygenated media. **—P<0.02. […] Cells were allowed to recover in the presence of the compounds for 24 hours, and specific neuronal viability was determined using MAP2 cytoblot. Values represent the percentages of live cells normalized to the compound treated cells, which were maintained in glucose-containing, non-deoxygenated media. **—P<0.04.

L929 cells = assay: TNFα-induced CICD of L929 cells, ATP assay; assay type: cell-based, mouse; conditions: no caspase inhibitor
Procedure: Cell viability was determined using ATP-Lite-M ATP assay (Packard). The values represent viability relative to the control lacking TNFα, which was set as 100% viability.
Cell viability in this and subsequent panels was determined by ATP-based viability assay. Numbers represent percentages of the live cells normalized to those in the untreated control wells. Throughout, error bars represent standard deviations. […] Numbers represent viability normalized to that of the corresponding compound-treated cells in the absence of FasL. […] Numbers represent viability normalized to that of the corresponding compound-treated cells in the absence of dimerizer. […] Cells were treated with TNFα (E, F, H), zVAD.fmk (E, F), or CHX (F) for 16 (F) or 24 (E, H) hours. Numbers represent viability normalized to that of the compound-treated cells in the absence of TNFα.

CD8+ cells = assay: Activation and proliferation of CD8+ cytotoxic T lymphocytes (CTL) suppressed by zVAD.fmk; assay type: cell-based, mouse; conditions: 100 μM zVAD.fmk, 30 μM compound
Procedure: Numbers of cells were determined using FACS analyses. Cell numbers are normalized to the number of cells in unstimulated control, which was set as 100%. […] Cells were stained with αCD8^+-FITC antibody (Pharmingen) and CD8^+ cell numbers were determined by FACS. Cell numbers are normalized to the number of cells in unstimulated control, which was set as 100%. Percentages of dead cells (line) was determined by co-staining cells with propidium iodide.
Values represent fold increase over unstimulated control.
Cells were stained with αCD8^+-FITC antibody (Pharmingen), and CD8^+ cell numbers were determined by FACS. Cell numbers are normalized to the number of cells in unstimulated control, which was set as 100%. Percentages of dead cells (line) were determined by co-staining cells with propidium iodide.

[1] = system: FADD-deficient Jurkat T cells treated with TNF-α; assay: Inhibition of necroptosis (CICD) in FADD-deficient Jurkat T cells treated with TNF-α, ATP-based viability; assay type: cell-based, human
healthy cells = assay: Effect of compound alone on physiology of healthy cells (ATP, morphology, cell cycle, mRNA, ROS); assay type: cell-based
Procedure: Results of the forward and side scatter FACS analysis are shown. In addition, percentage of PI negative viable cells (±SD value) was determined in each sample. […] Numbers of PI negative viable cells (±SD value) in each sample are shown. […] FADD-deficient Jurkat cells were treated as described in FIG. 31A and cell cycle profiles were analyzed by PI DNA content FACS analysis. […] Cell viability was determined using ATP assay. Numbers represent viability normalized to that of the corresponding DMSO-treated cells. Error bars indicate standard deviation values. […] Cells were fixed, embedded and analyzed using electron microscopy. Representative images are shown. […] Cells were stained with dyhydroethydium (Molecular Probes) and analyzed by FACS. Percentages (±SD value) of cells with increased ROS levels are shown. […] Red dots are internal reference controls.
Cells were fixed and stained with anti-giantin (Golgi, green)/anti-KDEL (ER, red) antibodies (FIG. 32A), anti-β-tubulin (tubulin, green)/TO-PRO-3 dye (nuclei, blue)/phalloidin-TRITC (actin, red) (FIG. 32B) and anti-cytochrome c (mitochondria, red)/TO-PRO-3 (nuclei, blue) (FIG. 32C). […]
After the appropriate treatment, we washed Jurkat cells once, resuspended them in PBS, and fixed the cells by adding four volumes of ice cold 100% ethanol. […] We analyzed the data using ModFit software (Verity Software House).

RIP2 = target: T1, RIP2 (Homo sapiens, UniProt O43353); assay: In vitro kinase assay: autophosphorylation of RIP2; assay type: biochemical; conditions: RIP2-Myc from transfected 293T cells
T1 construct: expressed in transfected cells; host or cells: 293T
T1 sequence (O43353 whole entry, species assumed): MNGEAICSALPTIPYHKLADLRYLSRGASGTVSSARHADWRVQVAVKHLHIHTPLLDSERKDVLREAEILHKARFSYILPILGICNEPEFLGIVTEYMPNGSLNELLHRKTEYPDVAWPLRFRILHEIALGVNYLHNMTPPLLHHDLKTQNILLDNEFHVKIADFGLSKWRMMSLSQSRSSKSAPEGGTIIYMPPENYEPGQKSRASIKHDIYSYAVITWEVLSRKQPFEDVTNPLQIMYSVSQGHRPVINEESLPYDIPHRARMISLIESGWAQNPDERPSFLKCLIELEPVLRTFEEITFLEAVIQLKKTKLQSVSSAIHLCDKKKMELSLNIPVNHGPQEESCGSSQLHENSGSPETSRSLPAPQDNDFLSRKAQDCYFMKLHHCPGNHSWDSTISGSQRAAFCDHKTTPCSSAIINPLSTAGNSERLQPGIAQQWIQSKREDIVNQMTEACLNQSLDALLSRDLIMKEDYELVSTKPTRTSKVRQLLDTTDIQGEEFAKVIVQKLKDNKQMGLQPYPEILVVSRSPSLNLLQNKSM
From the text: 293T cells were transfected with RIP-FLAG or RIP2-Myc vectors. […] Major bands corresponding to phosphorylated RIP, RIP2, asterisks, and IgG are shown.

methylthiohydantoin-tryptophane [Nec-1] was tested, and the “protection from menadione induced cell death, in words” value (U937 cells) was “did not block the “classic” oxidative stress-induced necrosis caused by menadione”, the “protection from OGD-induced neuronal death, in words” value (primary cortical neurons) was “protects primary cortical neurons from oxygen-glucose deprivation induced cell death; also recorded: attenuated OGD-induced death of cortical neurons” and the “protection of L929 cells from TNFα-induced CICD, in words” value (L929 cells) was “protects L929 cells from CICD; also recorded: unlike Nec-1; also recorded: efficiently inhibited the TNFα-induced necrotic death of L929 cells”. The “restoration of CTL activation/proliferation suppressed by zVAD.fmk, in words” value (CD8+ cells) was “restores normal activation of CTLs inhibited by caspase inhibition; also recorded: restoration of CTL proliferation by Nec-1; also recorded: completely suppressed by Nec-1; also recorded: suppression of cell proliferation was prevented in the presence of Nec-1”, the EC50 ([1]; 10 ng/mL human TNF-α, 24 hours, ATP-based viability, EC50 ± SD from at least two independent experiments, read-out: EC50 (μM) for inhibition of necroptosis) was 0.05 µM and the “antinecroptotic (anti-CICD) activity, in words” value ([1]; FADD-deficient Jurkat cells, TNFα) was “allowed proliferation of TNFα-treated FADD-deficient cells at a rate indistinguishable from untreated cells; also recorded: prevented the death of TNFα-treated FADD-deficient Jurkat cells”. For the same substance, the EC50 ([1]; Jurkat FADD deficient cells treated with TNFα, read-out: EC50) was 0.494 µM, the EC50 ([1]; concentration required to rescue 50% of cell death, TNFα for 36 hours, ATP assay, read-out: EC50) was 0.494 µM and the “general effect in healthy cells, in words” value (healthy cells) was “does not significantly affect gene expression in Jurkat cells; also recorded: had no general effect in healthy cells”. For the same substance, the “effect on RIP2 autophosphorylation, in words” value (RIP2) was “lack of a Nec-1 effect on RIP2 autophosphorylation; also recorded: had no effect on RIP2 autophosphorylation”.
